Experimental data as given in patent US8952024B2, “Herbicidal pyrimidone derivatives” (E I du Pont de Nemours and Company, priority 2009, dated 2015).

Legend:
Assay type in all cases: in vivo
[1] = test system: green foxtail (Setaria viridis); test: Test B pre-/postemergence plant response
How it was run: (§1)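 Visually scored on a 0 to 100 scale after 13 to 15 days in greenhouse versus controls. Treatments were preemergence on seeded loam/sand soil and postemergence on 1- to 4-leaf plants.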

[2] = test system: wild oat (Avena fatua); test: Test B pre-/postemergence plant response
How it was run: as §1

[3] = test system: bermudagrass (Cynodon dactylon); test: Test B pre-/postemergence plant response; details: for Bermudagrass plant response rating (0 to 100 scale): 0 is no effect
How it was run: as §1

[4] = test system: cocklebur (Xanthium strumarium); test: Test B pre-/postemergence plant response
How it was run: as §1

[5] = test system: yellow nutsedge (Cyperus esculentus); test: Test B pre-/postemergence plant response
How it was run: as §1

[6] = test system: goosegrass (Eleusine indica); test: Test B pre-/postemergence plant response
How it was run: as §1

[7] = test system: wheat (Triticum aestivum); test: Test B pre-/postemergence plant response
How it was run: as §1

[8] = test system: morningglory (Ipomoea coccinea); test: Test B pre-/postemergence plant response
How it was run: as §1

[9] = test system: lambsquarters (Chenopodium album); test: Test B pre-/postemergence plant response
How it was run: as §1

[10] = test system: large crabgrass (Digitaria sanguinalis); test: Test B pre-/postemergence plant response
How it was run: as §1

[11] = test system: umbrella sedge (Cyperus difformis); test: Test B flooded paddy test; details: for Plant response rating, Flood, Sedge, Umbrella: 250 g ai/ha, flooded paddy test, visual rating on 0 to 100 scale (0 no effect, 100 complete control) after 13 to 15 days; for Plant response rating, Sedge, Umbrella: Flood (flooded paddy test), 13 to 15 days
How it was run: (§2)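 Rice, umbrella sedge, ducksalad and barnyardgrass were grown to the 2-leaf stage, flooded to 3 cm, and compound was applied directly to the paddy water, with that depth kept throughout. After 13 to 15 days in the greenhouse, plants were visually rated against controls on a 0 (no effect) to 100 (complete control) scale.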

[12] = test system: barnyardgrass (Echinochloa crus-galli); test: Test B flooded paddy test; details: for Plant response rating, Flood, Barnyardgrass: 250 g ai/ha, flooded paddy test, visual rating on 0 to 100 scale (0 no effect, 100 complete control) after 13 to 15 days; for Plant response rating, Barnyardgrass: Flood (flooded paddy test), 13 to 15 days
How it was run: as §2

[13] = 31 g ai/ha, postemergence, scale 0 to 100, 0 is no effect, 100 is complete control
[14] = 62 g ai/ha, postemergence, 0 is no effect, 100 is complete control, 13 to 15 days
[15] = Postemergence, 125 g ai/ha, scale 0 to 100 (0 no effect, 100 complete control)
[16] = Postemergence, 250 g ai/ha, scale 0 to 100 (0 no effect, 100 complete control)
[17] = Preemergence, 31 g ai/ha, scale 0 to 100 (0 no effect, 100 complete control)
[18] = Preemergence, 62 g ai/ha, scale 0 to 100 (0 no effect, 100 complete control)
[19] = Preemergence, 125 g ai/ha, scale 0 to 100, 0 no effect, 100 complete control
[20] = Preemergence, 250 g ai/ha, 0 to 100 scale
[21] = 62 g ai/ha, postemergence, 100 is complete control, 13 to 15 days
[22] = 62 g ai/ha, scale of 0 to 100 where 0 is no effect and 100 is complete control
[23] = Postemergence, 31 g ai/ha, 0 to 100 scale (0 no effect, 100 complete control)
[24] = Postemergence, 250 g ai/ha, scale 0 to 100 (0 no effect, 100 complete control), 13 to 15 days
[25] = 125 g ai/ha, scale 0 to 100, 0 is no effect, 100 is complete control
[26] = Flood, 31 g ai/ha, scale 0 to 100 (0 no effect, 100 complete control)

SMILES: COCCn1c(-c2cc(F)cc(F)c2)ncc(C(=O)C2=C(O)CCCC2=O)c1=O [Compound 119]
- Plant response rating, Foxtail, Green [1, 13]: 85
- Foxtail, Green plant response rating (0 to 100 scale) [1, 14]: 90
- Plant response rating, Foxtail, Green [1, 15]: 95
- Plant response rating, Foxtail, Green [1, 16]: 100
- Plant response rating, Foxtail, Green [1, 17]: 95
- Plant response rating, Foxtail, Green [1, 18]: 100
- Plant response rating, Foxtail, Green [1, 19]: 100
- Foxtail, Green plant response rating [1, 20]: 100
- Plant response rating, Oat, Wild [2, 13]: 50
- Oat, Wild plant response rating (0 to 100 scale) [2, 14]: 60
- Plant response rating, Oat, Wild [2, 15]: 95
- Plant response rating, Oat, Wild [2, 16]: 95
- Plant response rating, Oat, Wild [2, 17]: 0
- Plant response rating, Oat, Wild [2, 18]: 45
- Plant response rating, Oat, Wild [2, 19]: 50
- Oat, Wild plant response rating [2, 20]: 80
- Plant response rating, Bermudagrass [3, 13]: 75
- Bermudagrass plant response rating (0 to 100 scale) [3, 21]: 98
- Plant response rating, Bermudagrass [3, 15]: 98
- Plant response rating, Bermudagrass [3, 16]: 98
- Plant response rating, Bermudagrass [3, 17]: 100
- Plant response rating, Bermudagrass [3, 18]: 100
- Plant response rating, Bermudagrass [3, 19]: 100
- Bermudagrass plant response rating ([3]; Preemergence, 250 g ai/ha, 0 to 100 scale, 0 no effect, 100 complete control): 100
- Plant response rating, Cocklebur [4, 13]: 0
- Cocklebur plant response rating (0 to 100 scale) [4, 14]: 10
- Plant response rating, Cocklebur [4, 15]: 80
- Plant response rating, Cocklebur [4, 16]: 95
- Plant response rating, Cocklebur [4, 17]: 0
- Plant response rating, Cocklebur [4, 19]: 70
- Cocklebur plant response rating [4, 20]: 85
- Plant response rating, Nutsedge, Yellow [5, 13]: 10
- Nutsedge, Yellow plant response rating (0 to 100 scale) [5, 14]: 50
- Plant response rating, Nutsedge, Yellow [5, 15]: 65
- Plant response rating, Nutsedge, Yellow [5, 16]: 75
- Plant response rating, Nutsedge, Yellow [5, 17]: 75
- Plant response rating, Nutsedge, Yellow [5, 18]: 95
- Plant response rating, Nutsedge, Yellow [5, 19]: 98
- Nutsedge, Yellow plant response rating [5, 20]: 98
- Plant response rating, Goosegrass [6, 13]: 75
- Goosegrass plant response rating (0 to 100 scale) [6, 14]: 75
- Plant response rating, Goosegrass [6, 15]: 85
- Plant response rating, Goosegrass [6, 16]: 95
- Plant response rating, Goosegrass [6, 17]: 100
- Plant response rating, Goosegrass [6, 18]: 100
- Plant response rating, Goosegrass [6, 19]: 100
- Goosegrass plant response rating [6, 20]: 100
- Wheat plant response rating (0 to 100 scale) [7, 14]: 40
- Plant response rating, Wheat [7, 15]: 60
- Plant response rating, Wheat [7, 17]: 0
- Plant response rating, Wheat [7, 18]: 0
- Plant response rating, Wheat [7, 19]: 30
- Wheat plant response rating [7, 20]: 50
- Plant response rating, Morningglory [8, 13]: 10
- Morningglory plant response rating (0 to 100 scale) [8, 14]: 60
- Plant response rating, Morningglory [8, 15]: 95
- Plant response rating, Morningglory [8, 16]: 95
- Plant response rating, Morningglory [8, 17]: 60
- Plant response rating, Morningglory [8, 18]: 95
- Plant response rating, Morningglory [8, 19]: 95
- Morningglory plant response rating [8, 20]: 95
- Plant response rating, Lambsquarters [9, 13]: 85
- Lambsquarters plant response rating (0 to 100 scale) [9, 14]: 100
- Plant response rating, Lambsquarters [9, 15]: 100
- Plant response rating, Lambsquarters [9, 16]: 100
- Plant response rating, Lambsquarters [9, 17]: 95
- Plant response rating, Lambsquarters [9, 18]: 98
- Plant response rating, Lambsquarters [9, 19]: 100
- Lambsquarters plant response rating [9, 20]: 100
- Plant response rating, Crabgrass, Large [10, 13]: 75
- Crabgrass, Large plant response rating (0 to 100 scale) [10, 14]: 85
- Plant response rating, Crabgrass, Large [10, 15]: 95
- Plant response rating, Crabgrass, Large [10, 16]: 95
- Plant response rating, Crabgrass, Large [10, 17]: 100
- Plant response rating, Crabgrass, Large [10, 18]: 100
- Plant response rating, Crabgrass, Large [10, 19]: 100
- Crabgrass, Large plant response rating [10, 20]: 100
- Plant response rating, Flood, Sedge, Umbrella [11]: 75
- Plant response rating, Sedge, Umbrella [11, 22]: 25
- Plant response rating, Flood, Barnyardgrass [12]: 50
- Plant response rating, Barnyardgrass [12, 22]: 30

SMILES: O=C1CCCC(O)=C1C(=O)c1cnc(-c2ccccc2)n(C2CCSCC2)c1=O [Compound 164]
- Plant response rating, Foxtail, Green [1, 23]: 70
- Plant response rating, Foxtail, Green [1, 15]: 98
- Plant response rating, Foxtail, Green [1, 24]: 100
- Plant response rating, Oat, Wild [2, 23]: 25
- Plant response rating, Oat, Wild [2, 15]: 85
- Plant response rating, Oat, Wild [2, 24]: 90
- Bermudagrass plant response rating (0 to 100 scale) [3, 21]: 98
- Plant response rating, Bermudagrass [3, 23]: 70
- Plant response rating, Bermudagrass [3, 15]: 98
- Plant response rating, Bermudagrass [3, 24]: 100
- Plant response rating, Cocklebur [4, 23]: 98
- Plant response rating, Cocklebur [4, 15]: 100
- Plant response rating, Cocklebur [4, 24]: 100
- Plant response rating, Nutsedge, Yellow [5, 23]: 40
- Plant response rating, Nutsedge, Yellow [5, 15]: 70
- Plant response rating, Nutsedge, Yellow [5, 24]: 75
- Plant response rating, Goosegrass [6, 23]: 85
- Plant response rating, Goosegrass [6, 15]: 98
- Plant response rating, Goosegrass [6, 24]: 98
- Plant response rating, Wheat [7, 23]: 0
- Plant response rating, Wheat [7, 15]: 35
- Plant response rating, Wheat [7, 24]: 50
- Plant response rating, Morningglory [8, 23]: 90
- Plant response rating, Morningglory [8, 15]: 98
- Plant response rating, Morningglory [8, 24]: 100
- Plant response rating, Lambsquarters [9, 23]: 98
- Plant response rating, Lambsquarters [9, 15]: 100
- Plant response rating, Lambsquarters [9, 24]: 100
- Plant response rating, Crabgrass, Large [10, 23]: 95
- Plant response rating, Crabgrass, Large [10, 15]: 98
- Plant response rating, Crabgrass, Large [10, 24]: 100
- Plant response rating, Flood, Sedge, Umbrella [11]: 90
- Plant response rating, Sedge, Umbrella [11, 22]: 0
- Plant response rating, Sedge, Umbrella [11, 25]: 0
- Sedge, Umbrella plant response rating [11, 26]: 0
- Plant response rating, Flood, Barnyardgrass [12]: 0
- Plant response rating, Barnyardgrass [12, 22]: 0
- Plant response rating, Barnyardgrass [12, 25]: 0
- Barnyardgrass plant response rating [12, 26]: 0
